Measurements taken from PubChem BioAssay (NCI).
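The compound was tested at five concentrations on cells cultured in 96-well plates, with a 48-hour exposure period. TGI: total growth inhibition.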

Tests used:
Test in all cases: NCI-60 cell line screen, 48 h
NCI-H226 lung = system: NCI-H226 lung
EKVX NSCLC = system: EKVX NSCLC
SNB-19 CNS = system: SNB-19 CNS
LOX IMVI melanoma = system: LOX IMVI melanoma
HCC-2998 colon = system: HCC-2998 colon
HCT-116 colon = system: HCT-116 colon
DU-145 prostate = system: DU-145 prostate
MDA-MB-435 = system: MDA-MB-435
CCRF-CEM leukemia = system: CCRF-CEM leukemia
MDA-N = system: MDA-N
SW-620 colon = system: SW-620 colon
K-562 leukemia = system: K-562 leukemia
A549 NSCLC = system: A549 NSCLC
SF-295 CNS = system: SF-295 CNS
PC-3 prostate = system: PC-3 prostate
SN12C renal = system: SN12C renal
NCI-H23 lung = system: NCI-H23 lung
ACHN renal = system: ACHN renal
HOP-62 NSCLC = system: HOP-62 NSCLC
SF-539 CNS = system: SF-539 CNS

SMILES | TGI (NCI-H226 lung) [µM] | TGI (EKVX NSCLC) [µM] | TGI (SNB-19 CNS) [µM] | TGI (LOX IMVI melanoma) [µM] | TGI (HCC-2998 colon) [µM] | TGI (HCT-116 colon) [µM] | TGI (DU-145 prostate) [µM] | TGI (MDA-MB-435) [µM] | TGI (CCRF-CEM leukemia) [µM] | TGI (MDA-N) [µM] | TGI (SW-620 colon) [µM] | TGI (K-562 leukemia) [µM] | TGI (A549 NSCLC) [µM] | TGI (SF-295 CNS) [µM] | TGI (PC-3 prostate) [µM] | TGI (SN12C renal) [µM] | TGI (NCI-H23 lung) [µM] | TGI (ACHN renal) [µM] | TGI (HOP-62 NSCLC) [µM] | TGI (SF-539 CNS) [µM]
CC/C=C(\C(=C/CC)[N+](=O)[O-])[N+](=O)[O-] | > 100 | 29.8 | > 100 | 32.2 | 34.4 | 35.1 | 45.7 | 31.6 | 42.4 | 43 | 32 | 71.3 | > 100 | > 100 | > 100 | 35.2 | 34.3 | 33.2 | > 100 | 40.3
COC(=O)N1CC2C3C4CC(C(c5ccccc5)=C4c4ccccc4)C3C21 (stereo not given) | 29.6 | 36.7 | 57.5 | 25.6 | 31.5 | 25.7 | 34.5 | 32.8 | 43.4 | 46.5 | 40.4 | > 100 | 73.1 | 32.4 | 69.3 | 33.1 | 98.1 | 52.3 | 42.5 | 32
